These are literature values, as cited in patent US10906892B2, “LFA-1 inhibitor and methods of preparation and polymorph thereof” (NOVARTIS PHARMACEUTICALS CORPORATION, priority 2012, dated 2021).

The structures appear in SMILES notation.

Data set [1] deals with Lymphocyte Function-Associated Antigen-1 (LFA-1) interactions with ICAM (Homo sapiens, UniProt P20701). Conditions: background statement, no data given.
The conditions of data set [2]: background statement, no data given.

Chain of Lymphocyte Function-Associated Antigen-1 (LFA-1) interactions with ICAM (P20701 26-1170): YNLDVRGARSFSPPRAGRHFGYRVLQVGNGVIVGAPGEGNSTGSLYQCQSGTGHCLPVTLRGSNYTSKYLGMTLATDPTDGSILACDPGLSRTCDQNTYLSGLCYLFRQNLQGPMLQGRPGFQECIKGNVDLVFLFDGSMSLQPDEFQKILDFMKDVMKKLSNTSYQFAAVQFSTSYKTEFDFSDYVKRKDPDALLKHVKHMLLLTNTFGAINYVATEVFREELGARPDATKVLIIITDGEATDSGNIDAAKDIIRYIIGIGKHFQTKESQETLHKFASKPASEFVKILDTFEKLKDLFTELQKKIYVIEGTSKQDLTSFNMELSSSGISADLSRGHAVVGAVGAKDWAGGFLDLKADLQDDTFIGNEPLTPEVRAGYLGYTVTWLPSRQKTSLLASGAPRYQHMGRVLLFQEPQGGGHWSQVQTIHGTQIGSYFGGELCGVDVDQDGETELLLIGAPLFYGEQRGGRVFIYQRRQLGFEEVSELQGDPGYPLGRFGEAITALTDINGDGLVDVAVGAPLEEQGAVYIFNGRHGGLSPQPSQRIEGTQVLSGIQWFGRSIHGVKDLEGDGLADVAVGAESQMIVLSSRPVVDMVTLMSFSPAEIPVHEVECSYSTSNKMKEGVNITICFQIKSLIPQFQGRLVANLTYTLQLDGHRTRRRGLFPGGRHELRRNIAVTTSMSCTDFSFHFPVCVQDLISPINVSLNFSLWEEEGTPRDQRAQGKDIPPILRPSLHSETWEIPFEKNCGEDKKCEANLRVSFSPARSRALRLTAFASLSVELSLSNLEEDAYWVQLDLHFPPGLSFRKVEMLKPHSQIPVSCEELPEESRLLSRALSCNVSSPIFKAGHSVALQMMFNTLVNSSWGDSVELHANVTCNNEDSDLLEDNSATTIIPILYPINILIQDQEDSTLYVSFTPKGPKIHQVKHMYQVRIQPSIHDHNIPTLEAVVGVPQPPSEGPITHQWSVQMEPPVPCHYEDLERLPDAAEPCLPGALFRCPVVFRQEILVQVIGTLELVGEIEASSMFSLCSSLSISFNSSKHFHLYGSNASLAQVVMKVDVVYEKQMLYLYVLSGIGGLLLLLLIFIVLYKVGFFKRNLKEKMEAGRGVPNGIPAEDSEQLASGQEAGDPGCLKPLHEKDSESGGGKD
Chain of Lymphocyte Function-Associated Antigen-1 (LFA-1) interactions with ICAM (P05107 23-769 partner): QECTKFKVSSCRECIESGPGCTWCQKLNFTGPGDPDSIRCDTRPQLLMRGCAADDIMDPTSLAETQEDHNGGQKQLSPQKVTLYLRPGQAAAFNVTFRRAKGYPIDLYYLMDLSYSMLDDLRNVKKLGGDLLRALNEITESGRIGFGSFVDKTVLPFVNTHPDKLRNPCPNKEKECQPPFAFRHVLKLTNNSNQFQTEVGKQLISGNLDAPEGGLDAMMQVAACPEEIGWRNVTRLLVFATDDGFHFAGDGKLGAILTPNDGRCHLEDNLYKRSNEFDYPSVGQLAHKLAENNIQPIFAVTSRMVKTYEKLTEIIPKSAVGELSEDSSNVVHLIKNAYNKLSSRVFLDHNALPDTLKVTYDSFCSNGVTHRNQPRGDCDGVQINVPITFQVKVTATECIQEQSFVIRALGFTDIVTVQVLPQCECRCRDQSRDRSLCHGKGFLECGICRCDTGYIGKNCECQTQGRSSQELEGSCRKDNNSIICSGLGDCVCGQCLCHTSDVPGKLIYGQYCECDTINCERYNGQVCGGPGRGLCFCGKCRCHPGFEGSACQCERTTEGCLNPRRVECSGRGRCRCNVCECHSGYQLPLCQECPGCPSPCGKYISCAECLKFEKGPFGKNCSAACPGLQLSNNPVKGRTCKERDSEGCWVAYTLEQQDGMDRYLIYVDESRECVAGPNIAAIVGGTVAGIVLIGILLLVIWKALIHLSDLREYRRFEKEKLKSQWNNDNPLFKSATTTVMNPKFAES

Turning to `CS(=O)(=O)c1cccc(C[C@H](NC(=O)c2c(Cl)cc3c(c2Cl)CCN(C(=O)c2ccc4ccoc4c2)C3)C(=O)O)c1` [Formula I], in data set [1], the “inhibition of LFA-1 interactions with ICAM” value is given as “effective inhibitor”. In addition, the systemic clearance entry in data set [2] is given as “rapid systemic clearance”.
